# ChEMBL document CHEMBL5523739, “NN1213 - A Potent, Long-Acting, and Selective Analog of Human Amylin” (J Med Chem, 2024)
# What was measured:
# [1] = Stability against amyloid fibril formation at pH 7.5 assessed as compound recovery at 1 uM measured after 45 hrs by ThT assay; assay type: physicochemical; conditions: pH 7.5, 45 h
# Rattus norvegicus [2] = assay: Appetite suppressing activity in rat assessed as reduction in food intake at 30 nmol/kg, sc measured for 24 to 48 hrs relative to control; assay type: functional; parameters: scale not given: the % may be the effect or the level left; conditions: time 24-48 hrs
# Homo sapiens [3] = organism: Homo sapiens; assay: Selectivity ratio of EC50 for human CTR expressed in Baby hamster kidney cells to EC50 for human AMY3R complex of CTR/RAMP3 expressed in Baby hamster kidney cells; assay type: cell-based
# [4] = molecular target: T1, Amylin receptor AMY3; CALCR/RAMP3 (Rattus norvegicus, UniProt P32214+Q9JJ73); assay: Displacement of 125I-rat amylin from rat AMY3R complex of CTR/RAMP3 expressed in Baby hamster kidney cell membrane incubated for 120 mins by SPA method; assay type: cell membranes
# T1 sequence (P32214 whole entry): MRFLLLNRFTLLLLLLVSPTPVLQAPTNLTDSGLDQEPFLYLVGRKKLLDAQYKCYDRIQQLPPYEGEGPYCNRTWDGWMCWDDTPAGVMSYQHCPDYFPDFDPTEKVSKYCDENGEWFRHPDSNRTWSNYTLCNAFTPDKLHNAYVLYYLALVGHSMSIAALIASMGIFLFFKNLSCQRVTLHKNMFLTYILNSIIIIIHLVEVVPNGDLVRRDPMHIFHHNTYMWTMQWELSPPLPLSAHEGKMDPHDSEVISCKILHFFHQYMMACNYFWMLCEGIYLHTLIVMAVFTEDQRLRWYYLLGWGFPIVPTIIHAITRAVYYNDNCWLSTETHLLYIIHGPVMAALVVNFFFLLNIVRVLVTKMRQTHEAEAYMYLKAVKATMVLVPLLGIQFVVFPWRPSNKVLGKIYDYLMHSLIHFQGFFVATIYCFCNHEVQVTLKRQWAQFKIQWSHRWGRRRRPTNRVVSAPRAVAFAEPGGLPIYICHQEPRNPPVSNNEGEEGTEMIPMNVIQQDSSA
# T1 sequence (Q9JJ73 whole entry): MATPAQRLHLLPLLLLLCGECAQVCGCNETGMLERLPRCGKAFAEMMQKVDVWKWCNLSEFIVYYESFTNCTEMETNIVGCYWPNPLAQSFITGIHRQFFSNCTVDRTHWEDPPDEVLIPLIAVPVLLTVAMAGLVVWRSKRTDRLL
# [5] = Solubility of compound at pH 6 incubated overnight by UPLC analysis; assay type: physicochemical; conditions: buffer
# Calcitonin receptor [6] = molecular target: T2, Calcitonin receptor (Homo sapiens, UniProt P30988); assay: Agonist activity at human CTR expressed in Baby hamster kidney cells incubated for 3 hrs followed by medium replacement without compound measured after 30 mins by luciferase reporter assay; assay type: functional, cell-based, Baby hamster kidney cell
# T2 sequence (P30988 whole entry): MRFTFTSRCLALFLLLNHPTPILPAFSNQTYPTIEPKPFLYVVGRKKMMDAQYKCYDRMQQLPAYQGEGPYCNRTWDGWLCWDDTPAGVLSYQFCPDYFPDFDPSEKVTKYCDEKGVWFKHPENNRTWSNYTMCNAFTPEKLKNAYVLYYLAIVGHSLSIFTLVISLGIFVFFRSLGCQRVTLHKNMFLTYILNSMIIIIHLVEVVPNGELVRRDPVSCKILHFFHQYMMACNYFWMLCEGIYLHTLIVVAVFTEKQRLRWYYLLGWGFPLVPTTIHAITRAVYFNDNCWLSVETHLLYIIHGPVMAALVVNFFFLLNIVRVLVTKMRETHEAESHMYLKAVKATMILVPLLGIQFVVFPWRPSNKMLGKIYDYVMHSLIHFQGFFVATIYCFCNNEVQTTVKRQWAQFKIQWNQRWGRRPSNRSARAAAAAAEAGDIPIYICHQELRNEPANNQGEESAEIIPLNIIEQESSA
# Homo sapiens [7] = organism: Homo sapiens; assay: Selectivity ratio of IC50 for human CTR expressed in Baby hamster kidney cell membrane to IC50 for human AMY3R complex of CTR/RAMP3 expressed in Baby hamster kidney cell membrane; assay type: cell-based
# [8] = Solubility of compound at pH 7 incubated overnight by UPLC analysis; assay type: physicochemical; conditions: buffer
# [9] = molecular target: T3, Amylin receptor AMY3; CALCR/RAMP3 (Homo sapiens, UniProt O60896+P30988); assay: Agonist activity at human AMY3R complex of CTR/RAMP3 expressed in Baby hamster kidney cells incubated for 3 hrs followed by medium replacement without compound measured after 30 mins by luciferase reporter assay; assay type: functional, cell-based, Baby hamster kidney cell
# T3 sequence (P30988 whole entry): T2 sequence (P30988 whole entry)
# T3 sequence (O60896 whole entry): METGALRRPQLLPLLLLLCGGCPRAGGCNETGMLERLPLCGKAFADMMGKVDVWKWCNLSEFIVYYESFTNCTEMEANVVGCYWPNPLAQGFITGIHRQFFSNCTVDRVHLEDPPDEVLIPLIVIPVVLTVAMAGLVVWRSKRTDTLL
# [10] = molecular target: T3, Amylin receptor AMY3; CALCR/RAMP3; assay: Displacement of 125I-rat amylin from human AMY3R complex of CTR/RAMP3 expressed in Baby hamster kidney cell membrane incubated for 120 mins by SPA method; assay type: cell membranes
# [11] = Stability against amyloid fibril formation at pH 7.5 assessed as lag time at 1 uM measured after 45 hrs by ThT assay; assay type: physicochemical; conditions: pH 7.5, 45 h
# [12] = Solubility of compound at pH 4 incubated overnight by UPLC analysis; assay type: physicochemical; conditions: buffer
# [13] = Solubility of compound at pH 5 incubated overnight by UPLC analysis; assay type: physicochemical; conditions: buffer
# [14] = Solubility of compound at pH 6.5 incubated overnight by UPLC analysis; assay type: physicochemical; conditions: buffer
# Rattus norvegicus [15] = assay: Appetite suppressing activity in rat assessed as reduction in food intake at 30 nmol/kg, sc measured upto 24 hrs relative to control; assay type: functional; parameters: scale not given: the % may be the effect or the level left
# Rattus norvegicus [16] = organism: Rattus norvegicus; assay: Selectivity ratio of EC50 for rat CTR expressed in Baby hamster kidney cells to EC50 for rat AMY3R complex of CTR/RAMP3 expressed in Baby hamster kidney cells; assay type: cell-based
# Calcitonin receptor [17] = molecular target: T4, Calcitonin receptor (Rattus norvegicus, UniProt P32214); assay: Displacement of 125I-Calcitonin from rat CTR expressed in Baby hamster kidney cell membrane incubated for 120 mins by SPA method; assay type: cell membranes
# T4 sequence (P32214 whole entry): T1 sequence (P32214 whole entry)
# [18] = molecular target: T1, Amylin receptor AMY3; CALCR/RAMP3; assay: Agonist activity at rat AMY3R complex of CTR/RAMP3 expressed in Baby hamster kidney cells incubated for 3 hrs by cAMP assay; assay type: functional, cell-based, Baby hamster kidney cell
# [19] = Solubility of compound at pH 7.5 incubated overnight by UPLC analysis; assay type: physicochemical; conditions: buffer
# Calcitonin receptor [20] = molecular target: T2, Calcitonin receptor; assay: Displacement of 125I-Calcitonin from human CTR expressed in Baby hamster kidney cell membrane incubated for 120 mins by SPA method; assay type: cell membranes
# Calcitonin receptor [21] = molecular target: T4, Calcitonin receptor; assay: Agonist activity at rat CTR expressed in Baby hamster kidney cells incubated for 3 hrs by cAMP assay; assay type: functional, cell-based, Baby hamster kidney cell
# [22] = Solubility of compound at pH 8 incubated overnight by UPLC analysis; assay type: physicochemical; conditions: buffer
# Rattus norvegicus [23] = organism: Rattus norvegicus; assay: Selectivity ratio of IC50 for rat CTR expressed in Baby hamster kidney cell membrane to IC50 for rat AMY3R complex of CTR/RAMP3 expressed in Baby hamster kidney cell membrane; assay type: cell-based
# [24] = Solubility of compound at pH 3 incubated overnight by UPLC analysis; assay type: physicochemical; conditions: buffer
structure (smiles),measurement,setting,value
CC[C@H](C)[C@H](NC(=O)[C@H](C)NC(=O)CNC(=O)[C@H](Cc1ccccc1)NC(=O)[C@H](CC(N)=O)NC(=O)[C@@H]1CCCN1C(=O)[C@H](CO)NC(=O)[C@H](CO)NC(=O)[C@H](Cc1c[nH]cn1)NC(=O)[C@H](CCCNC(=N)N)NC(=O)[C@H](CC(C)C)NC(=O)[C@H](Cc1ccccc1)NC(=O)[C@H](CC(N)=O)NC(=O)[C@H](C)NC(=O)[C@H](CC(C)C)NC(=O)[C@H](CCCNC(=N)N)NC(=O)[C@H](CCC(N)=O)NC(=O)[C@@H](NC(=O)[C@H](C)NC(=O)[C@@H]1CSSC[C@H](NC(=O)[C@@H](N)CCCCN)C(=O)N[C@@H](CC(N)=O)C(=O)N[C@@H]([C@@H](C)O)C(=O)N[C@@H](C)C(=O)N[C@@H]([C@@H](C)O)C(=O)N1)[C@@H](C)O)C(=O)N1CCC[C@H]1C(=O)N[C@@H](CO)C(=O)N[C@@H](CO)C(=O)N[C@H](C(=O)N[C@@H](CC(N)=O)C(=O)N[C@H](C(=O)NCC(=O)N[C@@H](CO)C(=O)N[C@@H](CC(N)=O)C(=O)N[C@H](C(=O)N[C@@H](Cc1ccc(O)cc1)C(N)=O)[C@@H](C)O)C(C)C)[C@@H](C)O,Drug recovery,[1],0%
same,Activity,Rattus norvegicus [2],1%
same,Ratio EC50,Homo sapiens [3],23
same,IC50,[4],3.01 nM
same,solubility,[5],≥ 200 µM
same,EC50,Calcitonin receptor [6],10 nM
same,Ratio IC50,Homo sapiens [7],90
same,solubility,[8],≥ 200 µM
same,EC50,[9],0.432 nM
same,IC50,[10],1.14 nM
same,Time,[11],34 h
same,solubility,[12],≥ 200 µM
same,solubility,[13],≥ 200 µM
same,solubility,[14],≥ 200 µM
same,Activity,Rattus norvegicus [15],22%
same,Ratio EC50,Rattus norvegicus [16],79
same,IC50,Calcitonin receptor [17],350 nM
same,EC50,[18],1.79 nM
same,solubility,[19],≥ 200 µM
same,IC50,Calcitonin receptor [20],102 nM
same,EC50,Calcitonin receptor [21],142 nM
same,solubility,[22],≥ 200 µM
same,Ratio IC50,Rattus norvegicus [23],116
same,solubility,[24],≥ 200 µM
CC[C@H](C)[C@H](NC(=O)[C@H](C)NC(=O)CNC(=O)[C@H](Cc1ccccc1)NC(=O)[C@H](CC(N)=O)NC(=O)[C@@H]1CCCN1C(=O)[C@H](CO)NC(=O)[C@H](CO)NC(=O)[C@H](Cc1c[nH]cn1)NC(=O)[C@H](CCCNC(=N)N)NC(=O)[C@H](CC(C)C)NC(=O)[C@H](Cc1ccccc1)NC(=O)[C@H](CC(=O)O)NC(=O)[C@H](C)NC(=O)[C@H](CC(C)C)NC(=O)[C@H](CCCNC(=N)N)NC(=O)[C@H](CCC(N)=O)NC(=O)[C@@H](NC(=O)[C@H](C)NC(=O)[C@@H]1CSSC[C@H](NC(=O)[C@@H](N)CCCCN)C(=O)N[C@@H](CC(N)=O)C(=O)N[C@@H]([C@@H](C)O)C(=O)N[C@@H](C)C(=O)N[C@@H]([C@@H](C)O)C(=O)N1)[C@@H](C)O)C(=O)N1CCC[C@H]1C(=O)N[C@@H](CO)C(=O)N[C@@H](CO)C(=O)N[C@H](C(=O)N[C@@H](CC(N)=O)C(=O)N[C@H](C(=O)NCC(=O)N[C@@H](CO)C(=O)N[C@@H](CC(=O)O)C(=O)N[C@H](C(=O)N[C@@H](Cc1ccc(O)cc1)C(N)=O)[C@@H](C)O)C(C)C)[C@@H](C)O,Activity,Rattus norvegicus [2],62%
same,Activity,Rattus norvegicus [15],72%
